Laboratory results published in BindingDB's records for patent US11352356 (Takeda Pharmaceutical Company Limited, 2022).

target: Plasma kallikrein (Human, UniProt P03952); assay: Inhibitory Activity Assay
Experimental: Example compounds were evaluated for inhibition of the human activated kallikrein enzyme in two formats of an assay employing a fluorogenic peptide substrate. In one assay format, the concentrations of reagents were as follows: 20 mM Tris pH 7.5, 1 mM EDTA, 150 mM sodium chloride, 0.1% PEG-400, 0.1% Triton X-100, 500 pM activated kallikrein enzyme, 300 uM Pro-Phe-Arg-7-amido-4-methylcoumarin substrate. Prior to reaction initiation with substrate, enzyme and inhibitors were preincubated for 30 min at RT. After initiation with substrate, reactions were incubated for 10 min at RT and fluorescence emission at 460 nm from 380 nm excitation measured with a microplate reader. In another assay format, the concentrations of reagents were as follows: 20 mM Tris pH 7.5, 1 mM EDTA, 150 mM sodium chloride, 0.1% PEG-400, 0.1% Triton X-100, 5 pM activated kallikrein enzyme, 300 uM Pro-Phe-Arg-7-amido-4-methylcoumarin substrate. Prior to reaction initiation with substrate, enzyme and inhibitors were preincubated for 30 min at RT. After initiation with substrate, reactions were incubated for 18 h at RT and fluorescence emission at 460 nm from 380 nm excitation measured with a microplate reader.

Sequence of Plasma kallikrein (P03952 20-390 S143N limits assumed): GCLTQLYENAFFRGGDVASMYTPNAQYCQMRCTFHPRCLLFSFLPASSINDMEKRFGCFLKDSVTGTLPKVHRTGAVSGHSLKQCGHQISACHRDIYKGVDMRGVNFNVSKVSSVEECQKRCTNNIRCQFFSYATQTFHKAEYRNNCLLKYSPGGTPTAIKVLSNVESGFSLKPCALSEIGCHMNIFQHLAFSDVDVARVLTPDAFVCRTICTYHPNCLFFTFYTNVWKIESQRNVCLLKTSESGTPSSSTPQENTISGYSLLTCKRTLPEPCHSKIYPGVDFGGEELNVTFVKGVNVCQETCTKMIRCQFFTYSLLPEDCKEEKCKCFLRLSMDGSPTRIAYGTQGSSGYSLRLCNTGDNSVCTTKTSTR
Sequence of Plasma kallikrein (P03952 391-638 limits assumed): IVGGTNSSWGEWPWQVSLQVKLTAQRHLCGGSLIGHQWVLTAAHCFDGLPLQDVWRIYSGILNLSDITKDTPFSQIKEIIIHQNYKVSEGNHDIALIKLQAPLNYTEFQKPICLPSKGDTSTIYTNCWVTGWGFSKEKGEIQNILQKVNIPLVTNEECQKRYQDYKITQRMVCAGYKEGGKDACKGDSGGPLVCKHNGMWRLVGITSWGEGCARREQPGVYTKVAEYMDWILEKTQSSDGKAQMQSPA

EC50, < 1 nM:
O=C(NCc1ncn2ccc(Cl)cc12)c1cnn(Cc2cn3ccc(C4CC4)c(F)c3n2)c1 [US11352356, Compound I-144]
COC(=O)c1cnn(-c2cc(C3CC3)cn3cc(Cn4cc(C(=O)NCc5ncn6ccc(Cl)c(F)c56)nn4)nc23)c1 [US11352356, Compound I-230]
CC(C)(C)OC(=O)C(C)(C)Oc1cc(C2CC2)cn2cc(Cn3cc(C(=O)NCc4ncn5ccc(Cl)c(F)c45)nn3)nc12 [US11352356, Compound I-212]
CC(C)(C)[S+]([O-])NCCOCc1cc(C2CC2)cn2cc(Cn3cc(C(=O)NCc4ncn5ccc(Cl)c(F)c45)nn3)nc12 (stereo unspecified) [US11352356, Compound I-302]
CCOC(COCc1cc(C2CC2)cn2cc(Cn3cc(C(=O)NCc4ncn5ccc(Cl)c(F)c45)nn3)nc12)OCC [US11352356, Compound I-301]
O=C(NCc1ncn2ccc(Cl)c(F)c12)c1cn(Cc2cn3ccc(C4CC4)cc3n2)nn1 [US11352356, Compound I-148]
